Reference: patent US20130267474A1, “NOVEL PHYTOCHEMICALS FROM EXTRACTS OF MAPLE SYRUPS AND MAPLE TREES AND USES THEREOF” (UNIVERSITY OF RHODE ISLAND, priority 2010, published 2013)
Where two headings read alike, the source gives them in different places.

Key:
[1] = tested on: HCT-116 (human colon carcinoma); experiment: MTS cytotoxicity / antiproliferative assay; type: cell-based; settings: Homo sapiens
Experimental: (§1) Cell lines included three human colon cancer cells: HT-29 (human colon adenocarcinoma), HCT116 (human colon carcinoma) and Caco-2 (human epithelial colorectal adenocarcinoma). In addition, normal human colon cells are included: CCD-^18Co (human colon fibroblasts). All cell lines are obtained from the American Type Culture Collection (ATCC, Rockville, Md., USA) and maintained at the University of Rhode Island.
(§2) The assay is carried out to measure the IC50 values for samples. […] Test samples and a positive control, etoposide 4 mg/mL (Sigma), are solubilized in DMSO by sonication. […] Control wells are also included on all plates. […] Each point on the curve is […]. Data (see tables 6 to 9) are expressed as mean±SE for three replications on each cell line.

[2] = tested on: HT-29 (human colon adenocarcinoma); experiment: MTS cytotoxicity / antiproliferative assay; type: cell-based; settings: Homo sapiens
Experimental: as §1, §2

[3] = tested on: Caco-2 (human epithelial colorectal adenocarcinoma); experiment: MTS cytotoxicity / antiproliferative assay; type: cell-based; settings: Homo sapiens
Experimental: as §1, §2

[4] = DPPH radical scavenging (antioxidant) assay; type: biochemical; settings: Table 10; mean ± standard deviation; 30 min, 515 nm; read-out: IC50 (μM), DPPH radical scavenging
Experimental: The DPPH radical scavenging activity of ascorbic acid (vitamin C) and the synthetic commercial antioxidant, butylated hydroxytoluene (BHT) are also assayed as positive controls (see Table 10). […] Absorbance is determined after 30 min at 515 nm, and the scavenging capacity (SC) is calculated as SC %=[(A0−A1/A0)]×100, where A0 is the absorbance of the reagent blank and A1 is the absorbance of the test samples. The control contained all reagents except the compounds, and all tests are performed in triplicate.
Absorbance is determined after 30 min at 515 nm, and the scavenging capacity (SC) is calculated as SC %=[(A0−A1/A0)]×100 where A0 is the absorbance of the reagent blank, and A1 is the absorbance with test samples. The control contained all reagents except the compounds and all tests are performed in triplicate.

[5] = HCT-116, 48 h, read-out: Antiproliferative activity HCT-116 48 h (IC50), 48 h, pure isolated compounds
[6] = HCT-116, 48 h, read-out: HCT-116 48 h(IC50), Table 6 maple compounds, 48 h, unit inferred
[7] = HCT-116, 72 h, 72 h, pure isolated compounds, read-out: Antiproliferative activity HCT-116 72 h (IC50)
[8] = HCT-116, 72 h, Table 6 maple compounds, 72 h, unit inferred, read-out: HCT-116 72 h(IC50)
[9] = HT-29, 72 h, 72 h, pure isolated compounds, read-out: Antiproliferative activity HT-29 72 h (IC50)
[10] = HT-29, 72 h, Table 6 maple compounds, 72 h, unit inferred, read-out: HT-29 72 h(IC50)
[11] = Caco-2, 48 h, read-out: Antiproliferative activity Caco-2 48 h (IC50), 48 h, pure isolated compounds
[12] = Caco-2, 48 h, read-out: Caco-2 48 h(IC50), Table 6 maple compounds, 48 h, unit inferred
[13] = Caco-2, 72 h, 72 h, pure isolated compounds, read-out: Antiproliferative activity Caco-2 72 h (IC50)
[14] = Caco-2, 72 h, Table 6 maple compounds, 72 h, unit inferred, read-out: Caco-2 72 h(IC50)
[15] = HCT-116, 72 h, 72 h, range given for the group, read-out: IC50 against HCT-116 cells at 72 h (activity ranking)
[16] = HT-29, 48 h, read-out: Antiproliferative activity HT-29 48 h (IC50), 48 h, pure isolated compounds
[17] = HT-29, 48 h, read-out: HT-29 48 h(IC50), Table 6 maple compounds, 48 h, unit inferred

Compound COc1cc(/C=C/CO)ccc1O [compound 21, (E)-coniferol] has an IC50 [1, 5] of 111 ± 1.5 µM, an IC50 [1, 6] of 111 µM and an IC50 [1, 7] of 84.6 ± 1.9 µM. The IC50 ([1]; HCT-116, 72 h, 72 h, range given for the group, unit inferred, read-out: IC50 against HCT-116 cells at 72 h (moderately active group)) was 75 to 85 µM, the IC50 [1, 8] was 84.6 µM and the IC50 [2, 9] was 113 ± 1.9 µM. It also gave an IC50 [2, 10] of 113 µM, an IC50 [3, 11] of 112 ± 2 µM and an IC50 [3, 12] of 116 µM. For the same compound, the IC50 [3, 13] was 96.4 ± 2.9 µM and the IC50 [3, 14] was 96.4 µM.
Compound catechaldehyde [compound 14] has an IC50 [4] of 694 ± 110 µM.
For COc1cc(C=O)cc(OC)c1O [compound 16, syringaldehyde], the IC50 ([1]; HCT-116, 48 h, read-out: Antiproliferative activity HCT-116 48 h (IC50)) was 66.8 ± 1.3 µM, the IC50 ([1]; HCT-116, 48 h, read-out: HCT-116 48 h(IC50)) was 66.8 µM and the IC50 ([1]; HCT-116, 72 h, read-out: Antiproliferative activity HCT-116 72 h (IC50)) was 56.3 ± 1.8 µM. It also gave an IC50 ([1]; HCT-116, 72 h, read-out: HCT-116 72 h(IC50)) of 56.3 µM, an IC50 ([1]; HCT-116, 72 h, read-out: IC50 against HCT-116 cells at 72 h (activity ranking)) of 42 to 67 µM and an IC50 ([2]; HT-29, 48 h, read-out: Antiproliferative activity HT-29 48 h (IC50)) of 90.7 ± 3 µM. The IC50 ([2]; HT-29, 48 h, read-out: HT-29 48 h(IC50)) was 90.7 µM, the IC50 ([2]; HT-29, 72 h, read-out: Antiproliferative activity HT-29 72 h (IC50)) was 68.6 ± 1.4 µM and the IC50 ([2]; HT-29, 72 h, read-out: HT-29 72 h(IC50)) was 68.6 µM. The IC50 ([3]; Caco-2, 48 h, read-out: Antiproliferative activity Caco-2 48 h (IC50)) was 59.4 ± 2.7 µM, the IC50 ([3]; Caco-2, 48 h, read-out: Caco-2 48 h(IC50)) was 59.4 µM and the IC50 ([3]; Caco-2, 72 h, read-out: Antiproliferative activity Caco-2 72 h (IC50)) was 35.9 ± 2.4 µM. It also gave an IC50 ([3]; Caco-2, 72 h, read-out: Caco-2 72 h(IC50)) of 35.9 µM.
Compound “2,4,5-trihydroxyacetophenone [compound 13]” has an IC50 [4] of 68.9 ± 5.7 µM.
COc1cc([C@@H](O)[C@@H](CO)Oc2ccc(CCCO)cc2OC)ccc1O [compound 29, threo-guaiacylglycerol-β-O-4′-dihydroconiferyl alcohol] showed an IC50 [4] of 139 ± 13.3 µM.
dehydroconiferyl alcohol [compound 3] showed an IC50 [4] of 925 ± 179 µM.
With O=C(O)/C=C/c1ccc(O)cc1 [p-Coumaric Acid] the IC50 [1, 8] was 124 µM.
For COc1cc(C(O)C(CO)Oc2ccc(C(O)C(O)CO)cc2OC)ccc1O (stereo not drawn) [compound 28], the IC50 [4] was 814 ± 37.7 µM.
With COc1cc([C@@H](O)[C@@H](CO)Oc2ccc(CCCO)cc2OC)ccc1O [compound 6, erythro-guaiacylglycerol-β-O-4′-dihydroconiferyl alcohol] the IC50 [1, 5] was 107 ± 2.3 µM, the IC50 [1, 6] was 107 µM and the IC50 [1, 7] was 98.6 ± 3.2 µM. It also gave an IC50 [1, 15] of 94 to 110 µM, an IC50 [1, 8] of 98.6 µM and an IC50 [2, 9] of 110 ± 2 µM. The IC50 [2, 10] was 110 µM, the IC50 [3, 11] was 93.9 ± 2 µM and the IC50 [3, 12] was 93.9 µM. The IC50 [3, 13] was 88.5 ± 1 µM and the IC50 [3, 14] was 88.5 µM.
With O=C(CO)c1ccc(O)c(O)c1 [compound 11, 2-hydroxy-3′,4′-dihydroxyacetophenone] the IC50 [4] was 422.9 ± 2.4 µM, the IC50 [3, 12] was 92.5 µM and the IC50 [3, 14] was 86 µM.
Compound syringaldehyde [compound 16] has an IC50 [4] of 2880 ± 44 µM.
Work on COc1cc(C(=O)O)cc(OC)c1O [compound 19, syringic acid] yielded an IC50 [1, 5] of 119 ± 1.3 µM, an IC50 [1, 6] of 119 µM and an IC50 [1, 7] of 108 ± 0.9 µM. It also gave an IC50 [1, 15] of 94 to 110 µM, an IC50 [1, 8] of 108 µM and an IC50 [2, 16] of 126 ± 1.8 µM. The IC50 [2, 17] was 126 µM, the IC50 [2, 9] was 116 ± 1.8 µM and the IC50 [2, 10] was 116 µM.
Work on COc1cc(/C=C/C(=O)O)ccc1O [Ferulic Acid] yielded an IC50 [1, 6] of 119 µM, an IC50 [1, 8] of 104 µM and an IC50 [2, 17] of 128 µM. For the same compound, the IC50 [2, 10] was 121 µM.
Compound “5-(3″,4″-dimethoxyphenyl)-3-hydroxy-3-(4′-hydroxy-3′-methoxybenzyl)-4-hydroxymethyl-dihydrofuran-2-one [compound 24]” has an IC50 [4] of 254 ± 32.5 µM.
In the case of COc1cc(/C=C/CO)cc(OC)c1O [compound 20, syringenin], the IC50 [4] is reported as 322 ± 31.9 µM, the IC50 [1, 5] is reported as 123.5 ± 1.1 µM and the IC50 [1, 6] is reported as 124 µM. For the same compound, the IC50 [1, 7] was 108 ± 1.5 µM, the IC50 [1, 15] was 94 to 110 µM and the IC50 [1, 8] was 108 µM. It also gave an IC50 [2, 16] of 126 ± 3 µM, an IC50 [2, 17] of 126 µM and an IC50 [2, 9] of 113 ± 1.5 µM. It also gave an IC50 [2, 10] of 113 µM.
